The values below come from PMC6583964, “Identification and functional characterization of D-fructose receptor in an egg parasitoid, Trichogramma chilonis” (PLoS ONE, 2019).

Each structure is given as a SMILES string.

The target of test [1] is T1, TchiGR43a (Trichogramma chilonis, UniProt A0A481RL18).
T1 construct: full-length open reading frame (549 amino acid residues), expressed in Xenopus laevis oocytes
T1 sequence (A0A481RL18 1-549): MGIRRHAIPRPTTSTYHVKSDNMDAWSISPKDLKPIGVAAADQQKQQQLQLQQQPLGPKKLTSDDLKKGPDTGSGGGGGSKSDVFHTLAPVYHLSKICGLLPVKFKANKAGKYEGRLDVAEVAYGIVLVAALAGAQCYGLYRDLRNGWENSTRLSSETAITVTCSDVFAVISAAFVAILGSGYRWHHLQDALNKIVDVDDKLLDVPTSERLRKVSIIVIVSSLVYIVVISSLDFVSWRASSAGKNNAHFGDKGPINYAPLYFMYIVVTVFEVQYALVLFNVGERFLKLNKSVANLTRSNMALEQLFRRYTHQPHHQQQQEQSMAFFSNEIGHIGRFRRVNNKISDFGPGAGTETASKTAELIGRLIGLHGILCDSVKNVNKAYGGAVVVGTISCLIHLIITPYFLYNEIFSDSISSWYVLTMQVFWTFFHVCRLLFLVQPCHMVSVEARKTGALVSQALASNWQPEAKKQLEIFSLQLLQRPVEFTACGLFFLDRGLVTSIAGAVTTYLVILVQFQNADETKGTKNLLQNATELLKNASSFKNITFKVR
The test can be described thus: two-electrode voltage-clamp of Xenopus oocytes expressing TchiGR43a, dose-response. It is filed as cell-based. On the technique in general: Two-electrode voltage clamp holds a large cell at a set potential and records current.

The target in test [2] is T1, TchiGR43a. The test can be described thus: two-electrode voltage-clamp of Xenopus oocytes expressing TchiGR43a, single concentration […] (weaker response than D-fructose). The class given is cell-based.

One may read the EC50 as the concentration at which the effect is half-maximal. High values mean a need for much substance, low ones an effect from little substance. As for `O=C(CO)[C@@H](O)[C@H](O)[C@H](O)CO` [D-fructose], a half-maximal effect in test [1] (EC50) was put at 23 mM.

In the case of `O[C@H]1[C@H](O)[C@@H](O)[C@H](O)[C@@H](O)[C@H]1O` [myo-inositol], the “two-electrode voltage-clamp of Xenopus oocytes expressing TchiGR43a, single conc” value in test [2] is “the oocytes expressing TchiGR43a showed responses to D-fructose and myo-inositol”.
